Source: the NIST ThermoML archive (doi:10.1016/j.jct.2014.05.015)
± gives the expanded uncertainty stated by the source.

Tests used:
[1] = mn = molality of the nth substance listed, in mol/kg; conditions: 100 kPa, Liquid; for speed of sound: Frequency=3 MHz, Sing-around technique in a fixed-path interferometer; for mass density: Vibrating tube method
[2] = 100 kPa, Liquid

Compound | speed of sound ([1]; 293.15 K, m1 = 0.1) | speed of sound ([1]; 293.15 K, m1 = 0.2) | speed of sound ([1]; 293.15 K, m1 = 0.3) | mass density ([1]; 293.15 K, m1 = 0.1) | mass density ([1]; 293.15 K, m1 = 0.2) | mass density ([1]; 293.15 K, m1 = 0.3) | speed of sound ([1]; 298.15 K, m1 = 0.1) | speed of sound ([1]; 298.15 K, m1 = 0.2) | speed of sound ([1]; 298.15 K, m1 = 0.3) | mass density ([1]; 298.15 K, m1 = 0.1) | mass density ([1]; 298.15 K, m1 = 0.2) | mass density ([1]; 298.15 K, m1 = 0.3) | speed of sound ([1]; 303.15 K, m1 = 0.1) | speed of sound ([1]; 303.15 K, m1 = 0.2) | speed of sound ([1]; 303.15 K, m1 = 0.3) | mass density ([1]; 303.15 K, m1 = 0.1) | mass density ([1]; 303.15 K, m1 = 0.3) | speed of sound ([1]; 308.15 K, m1 = 0.1) | speed of sound ([1]; 308.15 K, m1 = 0.2) | speed of sound ([1]; 308.15 K, m1 = 0.3) | other results
O=C[C@H](O)[C@@H](O)[C@H](O)[C@H](O)CO [D-glucose] + O | 1489.2 ± 1.6 m/s | 1496 ± 1.6 m/s | 1502.5 ± 1.6 m/s | 1005.07 ± 0.26 kg/m3 | 1012.08 ± 0.27 kg/m3 | 1018.81 ± 0.27 kg/m3 | 1502.9 ± 1.6 m/s | 1509.4 ± 1.6 m/s | 1515.8 ± 1.6 m/s | 1003.87 ± 0.26 kg/m3 | 1010.89 ± 0.27 kg/m3 | 1017.52 ± 0.27 kg/m3 | 1514.8 ± 1.6 m/s | 1521.2 ± 1.6 m/s | 1527.3 ± 1.6 m/s | 1002.44 ± 0.26 kg/m3 | 1016.01 ± 0.27 kg/m3 | 1525.3 ± 1.6 m/s | 1531.2 ± 1.6 m/s | 1537.2 ± 1.6 m/s | mass density ([1]; 308.15 K, m1 = 0.1): 1000.79 ± 0.26 kg/m3; mass density ([1]; 308.15 K, m1 = 0.3): 1014.29 ± 0.27 kg/m3; speed of sound ([1]; 313.15 K, m1 = 0.1): 1534.1 ± 1.6 m/s; speed of sound ([1]; 313.15 K, m1 = 0.2): 1539.8 ± 1.6 m/s; speed of sound ([1]; 313.15 K, m1 = 0.3): 1545.7 ± 1.6 m/s; mass density ([1]; 313.15 K, m1 = 0.1): 998.945 ± 0.26 kg/m3; mass density ([1]; 313.15 K, m1 = 0.2): 1005.86 ± 0.26 kg/m3; mass density ([1]; 313.15 K, m1 = 0.3): 1012.36 ± 0.27 kg/m3
O [water] |  |  |  |  |  |  |  |  |  |  |  |  |  |  |  |  |  |  |  |  | mass density ([2]; 308.15 K, Vibrating tube method): 994.061 ± 0.26 kg/m3; speed of sound ([2]; 313.15 K, Frequency=3 MHz, Sing-around technique in a fixed-path interferometer): 1528.8 ± 1.6 m/s
OC[C@H]1O[C@@](CO)(O[C@H]2O[C@H](CO)[C@@H](O)[C@H](O)[C@H]2O)[C@@H](O)[C@@H]1O [D-sucrose] + O | 1492.3 ± 1.3 m/s | 1502.4 ± 1.3 m/s | 1512.9 ± 1.3 m/s | 1011.49 ± 0.14 kg/m3 | 1024.67 ± 0.14 kg/m3 | 1037.84 ± 0.14 kg/m3 | 1505.9 ± 1.3 m/s | 1515.7 ± 1.3 m/s | 1525.7 ± 1.3 m/s | 1010.26 ± 0.14 kg/m3 | 1023.37 ± 0.14 kg/m3 | 1036.47 ± 0.14 kg/m3 | 1517.8 ± 1.3 m/s | 1527 ± 1.3 m/s | 1536.8 ± 1.3 m/s | 1008.81 ± 0.14 kg/m3 | 1034.89 ± 0.14 kg/m3 | 1528.1 ± 1.3 m/s | 1536.9 ± 1.3 m/s | 1546.3 ± 1.3 m/s | mass density ([1]; 303.15 K, m1 = 0.2): 1021.85 ± 0.14 kg/m3; mass density ([1]; 308.15 K, m1 = 0.1): 1007.14 ± 0.13 kg/m3; mass density ([1]; 308.15 K, m1 = 0.2): 1020.13 ± 0.14 kg/m3; mass density ([1]; 308.15 K, m1 = 0.3): 1033.11 ± 0.14 kg/m3; speed of sound ([1]; 313.15 K, m1 = 0.1): 1536.7 ± 1.3 m/s; speed of sound ([1]; 313.15 K, m1 = 0.2): 1545.4 ± 1.3 m/s; speed of sound ([1]; 313.15 K, m1 = 0.3): 1554.2 ± 1.4 m/s; mass density ([1]; 313.15 K, m1 = 0.1): 1005.28 ± 0.13 kg/m3; mass density ([1]; 313.15 K, m1 = 0.2): 1018.22 ± 0.14 kg/m3; mass density ([1]; 313.15 K, m1 = 0.3): 1031.16 ± 0.14 kg/m3
